IC50 data for one molecule are collected here from patent US10189831B2, “Non-nucleoside reverse transcriptase inhibitors” (Merck Sharp & Dohme Corp., priority 2012, dated 2019).

For this assay, the target named is HIV-1 RT wild-type enzyme (Human immunodeficiency virus type 1 group M subtype B (isolate HXB2) (HIV-1), UniProt P04585). The assay can be described thus: Determination of HIV-1 reverse transcriptase inhibitory activity (RT polymerase assay). To be noted: HIV-1 RT wild-type enzyme 83 pM, RNA-dependent DNA polymerase reaction. The assay is classed as biochemical. How it is done: The heterodimeric nucleic acid substrate used in the HIV-1 RT polymerase reactions was generated by annealing the DNA primer, biotinylated pD500 (Sigma Aldrich, USA, 5′-biotin-ttg aaa tga ctg cgg tac ggc-3′), SEQ ID NO. 1 to the nucleotide RNA template t500 (derived from hepatitis C virus [HCV] sequence, IBA, Germany, 5′-[…]-3′), SEQ ID NO 2.). […] The mixture was then preincubated on an orbital shaker for 30 min at room temperature in microtiter plates (Costar 3365, Corning, USA). A polymerization reaction was initiated by the addition of RNA template/pD500 DNA primer hybrid (16.6 nM final of RNA/DNA hybrid) and dNTPs (2 μM dATP, dGTP, dCTP and 66.6 nM Ru-dUTP (Meso Scale Discovery, USA)). Plate was sealed and incubated for 5-10 min at room temperature on an orbital shaker. Plate was then incubated for 90 min at 37° C. and reactions quenched with 60 μl quenching buffer (50 mM EDTA, 0.7% BSA, 0.7% Tween-20, 0.017% sodium azide in PBS). […] After washing plate 3 times with 150 μL 1×PBS and blotting dry between cycles, 150 μL 1× Read Buffer T (4× Read Buffer T, Meso Scale Discovery) was added and incubated for 5 min at room temperature before counting on a Sector Imager S6000 (Meso Scale Discovery). Titration curves and IC50 values were calculated using a four parameter logistic fit according to standard procedures. […]

In turn, `CC(C)c1ccc(-c2cc(Cn3cnc(C(F)(F)F)c(Oc4cc(Cl)cc(C#N)c4)c3=O)n[nH]c2=O)cc1` [Example 49, 3-chloro-5-((1-((5-(4-isopropylphenyl)-6-oxo-1,6-dihydropyridazin-3-yl)methyl)-6-oxo-4-(trifluoromethyl)-1,6-dihydropyrimidin-5-yl)oxy)benzonitrile] yielded an IC50 of 15 nM.

Usually IC50 stands for the concentration that gives 50% inhibition.
